The supplement of paper PMC12533247

Key:
[1] = tested on: HSV-1 K26-GFP infected primary human skin cells; assay: % change of HSV-1 GFP signal vs untreated infected cells; higher = less antiviral inhibition
Description: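 2D primary donor-derived keratinocytes (read at 20 hpi) and donor-matched dermal fibroblasts (read at 48 hpi) infected with GFP-HSV-1 K26 at MOI 1 and treated 1 h later with compound dilutions. IncuCyte GFP integrated intensity is normalised by subtracting mock-infected wells and dividing by untreated infected wells, shown as % change (-100 = full inhibition).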

[2] = tested on: HSV-1 K26-GFP infected 3D skin equivalent; assay: % activity on HSV-1 GFP signal (0 = infected DMSO control, -100 = uninfected control); higher = higher signal (negative = inhibition / toxicity); details: time (h post infection): 48
Description: (§1)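 Triplicate dose-response (0.04 to 10 uM) of 11 top compounds in 3D bioprinted skin equivalents (submerged and ALI models) infected with GFP-HSV-1 K26 at MOI 0.1 and fixed at 48 hpi. GFP (virus) and tdTomato (fibroblast viability) signals are normalised to per-plate controls.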

primary keratinocytes = assay: % change in live cells vs DMSO control; higher = less cytotoxic; details: time (h post treatment): 20
Description: (§2)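 Cytotoxicity in uninfected 2D primary donor keratinocytes (20 h post treatment) and fibroblasts (48 h post treatment), measured with NucSpot live/dead dyes on IncuCyte. Live cells are normalised to the 0.2% DMSO control and shown as % change. Three biological replicates for each of donors 3, 4 and 5.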

[3] = tested on: primary dermal fibroblasts; assay: as above; details: time (h post treatment): 48
Description: as §2

[4] = tested on: HSV-1 K26-GFP infected 3D skin equivalent; assay: % change of tdTomato fibroblast signal relative to infected DMSO control; higher = higher signal (negative = inhibition / toxicity); details: time (h post infection): 48
Description: as §1

O=C(Nc1ccc([N+](=O)[O-])cc1Cl)c1cc(Cl)ccc1O [Niclosamide]
% change of HSV-1 GFP signal [%], [1]
Details	0.003 µM	0.0091 µM	0.0274 µM	0.0823 µM	0.2469 µM	0.7407 µM	2.2222 µM	6.6667 µM	20 µM	60 µM
cell type: primary dermal fibroblasts, donor: 5, time (h post infection): 48	-6.14	-7.3	-10.1	-19.9	-37	-51.4	-90	-99.53	-99.789	-99.78
cell type: primary keratinocytes, donor: 3, time (h post infection): 20	4.62	3.94	6.19	9.78	4.16	0.034	-16.7	-24.7	-62.7	-81.3
cell type: primary keratinocytes, donor: 4, time (h post infection): 20	-0.953	-7.59	-0.315	-0.334	-9.22	-11.5	-22.6	-42.3	-61.2	-95.4
cell type: primary keratinocytes, donor: 5, time (h post infection): 20	2.55	-1.84	0.0858	1.91	2.59	-2.44	-35.9	-52.8	-76.5	-95.1

Details	% activity on HSV-1 GFP signal, [2] [%]	% change in live cells, [3] [%]	% change in live cells, primary keratinocytes [%]	% change of tdTomato fibroblast signal, [4] [%]
0.041152 µM, model: ALI	-0.742	–	–	8.37
0.041152 µM, model: submerged	-3.85	–	–	-8.01
0.082305 µM, donor: 3	–	-18.7	-8	–
0.082305 µM, donor: 4	–	3	-13	–
0.082305 µM, donor: 5	–	5	-11.7	–
0.123457 µM, model: ALI	-58.6	–	–	0.996
0.123457 µM, model: submerged	-3.15	–	–	-14.3
0.246914 µM, donor: 3	–	-17	-11.7	–
0.246914 µM, donor: 4	–	2.67	-20.7	–
0.246914 µM, donor: 5	–	1.67	-11.3	–
0.37037 µM, model: ALI	-102	–	–	-9.97
0.37037 µM, model: submerged	-59.6	–	–	-34
0.740741 µM, donor: 3	–	-16	-30	–
0.740741 µM, donor: 4	–	-0.333	-20.7	–
0.740741 µM, donor: 5	–	-1	-8	–
1.111111 µM, model: ALI	-99.3	–	–	-7.62
1.111111 µM, model: submerged	-88.3	–	–	-44.6
2.22222 µM, donor: 3	–	-24.7	-14.3	–
2.22222 µM, donor: 4	–	-2	-15.3	–
2.22222 µM, donor: 5	–	-2.67	-13.3	–
3.33333 µM, model: ALI	-103	–	–	-10.3
3.33333 µM, model: submerged	-92.9	–	–	-44.5
6.66667 µM, donor: 3	–	-35	-23	–
6.66667 µM, donor: 4	–	-9	-13	–
6.66667 µM, donor: 5	–	-26	-9	–
10 µM, model: ALI	-98.7	–	–	-8.58
10 µM, model: submerged	-97.1	–	–	-47.05
20 µM, donor: 3	–	-49.7	-61.7	–
20 µM, donor: 4	–	-41.7	-25.7	–
20 µM, donor: 5	–	-63	-26.7	–
60 µM, donor: 3	–	-56	-68	–
60 µM, donor: 4	–	-38	-69.7	–
60 µM, donor: 5	–	-74.33	-54.7	–

Cc1nc(N(C)C(=O)Cc2ccc(-c3ccccn3)cc2)sc1S(N)(=O)=O [Pritelivir]
% change of HSV-1 GFP signal [%], [1]
Details	0.001 µM	0.003 µM	0.0091 µM	0.0274 µM	0.0823 µM	0.2469 µM	0.7407 µM	2.2222 µM	6.6667 µM	20 µM
cell type: primary dermal fibroblasts, donor: 5, time (h post infection): 48	-6.88	-8.21	-6.16	-14.2	-21.8	-61.5	-88.3	-99.754	-99.905	-99.853
cell type: primary keratinocytes, donor: 3, time (h post infection): 20	6.78	7.17	4.27	0.771	-17.7	-65.2	-88.8	-97.9	-98.88	-98.8
cell type: primary keratinocytes, donor: 4, time (h post infection): 20	1.71	10.5	3.75	-0.535	-26	-77.35	-95.7	-99.05	-99.54	-99.35
cell type: primary keratinocytes, donor: 5, time (h post infection): 20	3.7	2.94	1.99	-6.85	-31.7	-72.3	-94.1	-99.54	-99.63	-99.66

Details	% activity on HSV-1 GFP signal, [2] [%]	% change in live cells, [3] [%]	% change in live cells, primary keratinocytes [%]	% change of tdTomato fibroblast signal, [4] [%]
0.041152 µM, model: ALI	4.25	–	–	16.3
0.041152 µM, model: submerged	-6.28	–	–	11.8
0.082305 µM, donor: 3	–	-10.3	-3.33	–
0.082305 µM, donor: 4	–	-2.67	-1	–
0.082305 µM, donor: 5	–	7.67	-1.67	–
0.123457 µM, model: ALI	-38.2	–	–	6.72
0.123457 µM, model: submerged	-11	–	–	-3.78
0.246914 µM, donor: 3	–	-8.67	-6.67	–
0.246914 µM, donor: 4	–	-1	-18.3	–
0.246914 µM, donor: 5	–	7.67	-7.33	–
0.37037 µM, model: ALI	-92.9	–	–	0.531
0.37037 µM, model: submerged	-37.4	–	–	0.74
0.740741 µM, donor: 3	–	-8	-8.33	–
0.740741 µM, donor: 4	–	-6.33	-6	–
0.740741 µM, donor: 5	–	3.67	-0.667	–
1.111111 µM, model: ALI	-106	–	–	-3.11
1.111111 µM, model: submerged	-83.7	–	–	-3.09
2.22222 µM, donor: 3	–	-9	-6.33	–
2.22222 µM, donor: 4	–	-2	-4.67	–
2.22222 µM, donor: 5	–	0.667	-5.33	–
3.33333 µM, model: ALI	-106	–	–	-3.08
3.33333 µM, model: submerged	-96.7	–	–	-6.25
6.66667 µM, donor: 3	–	-11	-0.667	–
6.66667 µM, donor: 4	–	1.33	-44.3	–
6.66667 µM, donor: 5	–	-1	0.333	–
10 µM, model: ALI	-102	–	–	12
10 µM, model: submerged	-94.6	–	–	-0.666
20 µM, donor: 3	–	-10	-38	–
20 µM, donor: 4	–	7	-28.7	–
20 µM, donor: 5	–	-1	7.67	–
60 µM, donor: 3	–	-10	-78.3	–
60 µM, donor: 4	–	3.33	-61.7	–
60 µM, donor: 5	–	-13	-20	–
